Among the data in ChEMBL document CHEMBL1136213, “2,6-disubstituted pyran-4-one and thiopyran-4-one inhibitors of DNA-Dependent protein kinase (DNA-PK)” (Bioorg Med Chem Lett, 2003) are IC50 and Ki values, retold here.

Test [1] has as its target T1, DNA-dependent protein kinase catalytic subunit (Homo sapiens, UniProt P78527). The experiment in a line: In vitro inhibition of DNA-dependent protein kinase(DNA-PK) from HeLa (human carcinoma) cells. The class given is cell-based.
In test [2] the target is T1, DNA-dependent protein kinase catalytic subunit. Briefly: Affinity for DNA-dependent protein kinase(DNA-PK) from HeLa cell extract.

SMILES strings stand for the structures.

T1 sequence (P78527 whole entry): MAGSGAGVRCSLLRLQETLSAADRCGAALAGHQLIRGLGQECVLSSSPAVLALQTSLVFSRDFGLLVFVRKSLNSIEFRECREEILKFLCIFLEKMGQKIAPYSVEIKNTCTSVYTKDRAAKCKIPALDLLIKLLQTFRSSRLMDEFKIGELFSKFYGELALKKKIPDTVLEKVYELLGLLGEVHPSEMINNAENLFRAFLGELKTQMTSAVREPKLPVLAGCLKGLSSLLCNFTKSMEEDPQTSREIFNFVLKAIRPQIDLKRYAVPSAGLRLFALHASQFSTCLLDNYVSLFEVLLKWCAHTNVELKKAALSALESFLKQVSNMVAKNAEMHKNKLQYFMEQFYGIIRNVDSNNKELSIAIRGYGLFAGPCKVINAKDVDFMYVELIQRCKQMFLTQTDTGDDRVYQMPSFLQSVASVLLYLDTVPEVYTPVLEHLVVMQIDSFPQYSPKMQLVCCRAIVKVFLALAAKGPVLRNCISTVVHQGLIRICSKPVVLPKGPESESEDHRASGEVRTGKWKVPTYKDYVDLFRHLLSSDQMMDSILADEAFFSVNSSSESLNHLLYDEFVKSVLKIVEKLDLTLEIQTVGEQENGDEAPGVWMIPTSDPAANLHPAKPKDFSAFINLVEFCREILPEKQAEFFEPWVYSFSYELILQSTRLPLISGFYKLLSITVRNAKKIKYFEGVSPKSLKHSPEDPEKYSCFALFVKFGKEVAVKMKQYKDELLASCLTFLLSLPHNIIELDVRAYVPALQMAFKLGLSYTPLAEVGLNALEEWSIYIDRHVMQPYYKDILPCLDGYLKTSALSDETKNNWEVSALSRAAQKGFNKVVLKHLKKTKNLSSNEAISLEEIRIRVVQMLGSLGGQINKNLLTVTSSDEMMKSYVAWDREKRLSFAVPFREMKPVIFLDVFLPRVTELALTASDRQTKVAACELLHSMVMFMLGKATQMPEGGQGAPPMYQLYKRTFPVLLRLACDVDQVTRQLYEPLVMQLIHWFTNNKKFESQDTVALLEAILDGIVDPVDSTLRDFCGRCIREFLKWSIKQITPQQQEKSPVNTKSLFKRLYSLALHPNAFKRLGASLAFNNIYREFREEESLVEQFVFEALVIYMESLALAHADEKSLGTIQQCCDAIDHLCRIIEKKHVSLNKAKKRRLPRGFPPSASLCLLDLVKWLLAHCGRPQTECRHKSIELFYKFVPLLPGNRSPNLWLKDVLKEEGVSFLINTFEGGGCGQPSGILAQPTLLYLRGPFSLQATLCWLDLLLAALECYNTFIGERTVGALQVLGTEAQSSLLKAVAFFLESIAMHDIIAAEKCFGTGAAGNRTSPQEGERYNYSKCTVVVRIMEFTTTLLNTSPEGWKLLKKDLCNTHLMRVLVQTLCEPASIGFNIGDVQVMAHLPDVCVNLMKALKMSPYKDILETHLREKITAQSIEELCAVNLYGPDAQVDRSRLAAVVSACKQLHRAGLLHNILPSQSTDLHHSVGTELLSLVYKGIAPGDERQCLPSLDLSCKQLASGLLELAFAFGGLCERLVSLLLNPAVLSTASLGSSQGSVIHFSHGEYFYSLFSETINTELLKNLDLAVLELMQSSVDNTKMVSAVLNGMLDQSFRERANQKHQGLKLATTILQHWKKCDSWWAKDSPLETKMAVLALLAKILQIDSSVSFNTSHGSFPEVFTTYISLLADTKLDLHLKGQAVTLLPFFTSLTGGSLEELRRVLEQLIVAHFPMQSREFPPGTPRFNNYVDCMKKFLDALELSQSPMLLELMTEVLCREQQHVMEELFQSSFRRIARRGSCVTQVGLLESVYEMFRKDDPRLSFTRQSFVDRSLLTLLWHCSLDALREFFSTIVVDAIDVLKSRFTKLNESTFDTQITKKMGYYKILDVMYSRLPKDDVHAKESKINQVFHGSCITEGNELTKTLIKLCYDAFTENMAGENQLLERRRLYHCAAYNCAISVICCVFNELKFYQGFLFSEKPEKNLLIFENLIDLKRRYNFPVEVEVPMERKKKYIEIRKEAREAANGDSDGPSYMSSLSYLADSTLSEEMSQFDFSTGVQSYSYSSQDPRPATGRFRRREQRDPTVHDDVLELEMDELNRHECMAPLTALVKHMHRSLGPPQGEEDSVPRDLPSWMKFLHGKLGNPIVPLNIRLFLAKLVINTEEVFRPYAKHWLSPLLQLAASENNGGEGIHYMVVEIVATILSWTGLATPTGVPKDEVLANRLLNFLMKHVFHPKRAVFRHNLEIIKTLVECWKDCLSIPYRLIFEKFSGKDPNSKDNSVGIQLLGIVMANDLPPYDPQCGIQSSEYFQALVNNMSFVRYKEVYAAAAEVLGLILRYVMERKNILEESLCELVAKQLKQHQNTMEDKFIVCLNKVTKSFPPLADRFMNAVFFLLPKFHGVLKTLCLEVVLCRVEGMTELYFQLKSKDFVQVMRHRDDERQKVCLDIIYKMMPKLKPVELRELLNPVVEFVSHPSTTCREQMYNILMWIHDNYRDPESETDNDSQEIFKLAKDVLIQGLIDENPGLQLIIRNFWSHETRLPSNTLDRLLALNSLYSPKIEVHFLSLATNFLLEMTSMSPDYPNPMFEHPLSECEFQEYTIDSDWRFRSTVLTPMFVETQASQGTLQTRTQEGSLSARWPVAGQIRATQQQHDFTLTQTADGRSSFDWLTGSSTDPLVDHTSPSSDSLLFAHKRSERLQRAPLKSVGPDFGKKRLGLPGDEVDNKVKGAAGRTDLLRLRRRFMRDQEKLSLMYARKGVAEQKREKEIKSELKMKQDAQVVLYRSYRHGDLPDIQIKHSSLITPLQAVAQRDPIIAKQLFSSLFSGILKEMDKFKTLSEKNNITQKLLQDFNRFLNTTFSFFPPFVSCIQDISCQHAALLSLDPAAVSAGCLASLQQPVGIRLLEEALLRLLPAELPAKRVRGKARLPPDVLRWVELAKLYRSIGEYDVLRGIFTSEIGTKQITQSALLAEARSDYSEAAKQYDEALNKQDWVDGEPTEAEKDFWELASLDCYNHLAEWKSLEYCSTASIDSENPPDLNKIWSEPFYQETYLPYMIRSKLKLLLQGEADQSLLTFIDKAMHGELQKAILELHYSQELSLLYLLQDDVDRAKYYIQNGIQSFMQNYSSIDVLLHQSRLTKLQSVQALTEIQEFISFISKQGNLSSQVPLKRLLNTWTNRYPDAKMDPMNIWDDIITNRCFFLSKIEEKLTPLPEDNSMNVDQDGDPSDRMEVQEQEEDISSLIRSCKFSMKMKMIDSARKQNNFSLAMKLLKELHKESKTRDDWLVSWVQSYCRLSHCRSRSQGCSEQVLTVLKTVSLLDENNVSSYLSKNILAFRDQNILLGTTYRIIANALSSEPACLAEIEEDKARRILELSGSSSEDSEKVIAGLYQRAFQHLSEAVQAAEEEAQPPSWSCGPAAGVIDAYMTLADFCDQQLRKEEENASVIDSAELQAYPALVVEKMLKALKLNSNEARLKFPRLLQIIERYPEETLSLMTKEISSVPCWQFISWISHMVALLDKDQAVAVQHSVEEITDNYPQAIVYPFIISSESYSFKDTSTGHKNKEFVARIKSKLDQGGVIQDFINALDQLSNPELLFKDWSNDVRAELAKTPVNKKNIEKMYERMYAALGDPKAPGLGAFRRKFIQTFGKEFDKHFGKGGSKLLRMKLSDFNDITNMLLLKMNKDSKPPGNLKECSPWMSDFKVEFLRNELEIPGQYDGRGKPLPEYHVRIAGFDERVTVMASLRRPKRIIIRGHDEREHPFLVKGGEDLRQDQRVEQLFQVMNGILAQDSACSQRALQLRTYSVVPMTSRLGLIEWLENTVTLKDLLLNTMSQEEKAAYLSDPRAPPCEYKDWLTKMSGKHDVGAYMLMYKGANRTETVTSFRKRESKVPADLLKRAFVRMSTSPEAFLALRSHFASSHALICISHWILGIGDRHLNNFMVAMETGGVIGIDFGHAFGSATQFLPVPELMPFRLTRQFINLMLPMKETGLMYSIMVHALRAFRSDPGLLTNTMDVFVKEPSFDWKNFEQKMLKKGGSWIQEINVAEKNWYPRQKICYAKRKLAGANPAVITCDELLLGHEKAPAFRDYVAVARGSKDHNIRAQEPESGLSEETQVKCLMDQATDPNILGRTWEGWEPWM

In test [1], `O=c1cc(-c2cccc(-c3ccc(O)cc3)c2)sc(N2CCOCC2)c1` displayed an IC50 of 350 nM. This lies in the sub-micromolar range.

For the compound `O=c1cc(N2CCOCC2)oc2c1ccc1ccccc12`, the IC50 in test [1] is 230 nM.

With `O=c1cc(N2CCOCC2)oc2c(-c3ccccc3)cccc12` [LY-294002], in test [2], the affinity, expressed as Ki, was 6000 nM.
